pKd: −log10 of the molar value.
Columns and labels:
Assay in all cases: KinomeScan competition binding assay
CDK19 = biological target: T1, CDK19 (Homo sapiens, UniProt Q9BWU1); details: for POC ligand binding, CDK19: 10 μM compound; for pKd: read-out: CDK19 inhibition (Kd); for inhibition of CDK19: 10 μM
T1 construct: purchased KinomeScan, a division of Ambit Biosciences
Procedure, shortened: (§1)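 Binding, not catalytic activity, is measured here. Compound displacement of DNA-tagged kinase from an immobilized ligand directed at the ATP site is read by quantitative PCR and given as POC or Kd.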

CSNK1G2 = biological target: T2, CSNK1G2 (Homo sapiens, UniProt P78368); details: 10 μM compound
T2 construct: purchased KinomeScan, a division of Ambit Biosciences
T2 sequence (P78368 whole entry): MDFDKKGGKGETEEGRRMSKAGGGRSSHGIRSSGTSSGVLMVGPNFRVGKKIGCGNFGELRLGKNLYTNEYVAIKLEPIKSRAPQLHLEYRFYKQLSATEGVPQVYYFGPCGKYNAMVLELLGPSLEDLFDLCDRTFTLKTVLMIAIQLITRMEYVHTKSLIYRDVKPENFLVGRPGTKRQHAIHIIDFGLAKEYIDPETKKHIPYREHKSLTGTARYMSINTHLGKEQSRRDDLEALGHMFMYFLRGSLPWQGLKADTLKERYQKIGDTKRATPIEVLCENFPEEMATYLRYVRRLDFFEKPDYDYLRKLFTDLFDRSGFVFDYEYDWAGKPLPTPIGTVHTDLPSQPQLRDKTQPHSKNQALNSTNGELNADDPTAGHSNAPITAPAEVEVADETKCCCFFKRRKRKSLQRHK
Procedure, shortened: as §1

EGFR (G719C) = biological target: T3, EGFR (G719C) (Homo sapiens, UniProt P00533, G719C); details: 10 μM compound
T3 construct: purchased KinomeScan, a division of Ambit Biosciences
Procedure, shortened: as §1

FLT3 (D835Y) = biological target: T4, FLT3 (D835Y) (Homo sapiens, UniProt P36888, D835Y); details: 10 μM compound
T4 construct: purchased KinomeScan, a division of Ambit Biosciences
T4 sequence (P36888 27-993 D835Y): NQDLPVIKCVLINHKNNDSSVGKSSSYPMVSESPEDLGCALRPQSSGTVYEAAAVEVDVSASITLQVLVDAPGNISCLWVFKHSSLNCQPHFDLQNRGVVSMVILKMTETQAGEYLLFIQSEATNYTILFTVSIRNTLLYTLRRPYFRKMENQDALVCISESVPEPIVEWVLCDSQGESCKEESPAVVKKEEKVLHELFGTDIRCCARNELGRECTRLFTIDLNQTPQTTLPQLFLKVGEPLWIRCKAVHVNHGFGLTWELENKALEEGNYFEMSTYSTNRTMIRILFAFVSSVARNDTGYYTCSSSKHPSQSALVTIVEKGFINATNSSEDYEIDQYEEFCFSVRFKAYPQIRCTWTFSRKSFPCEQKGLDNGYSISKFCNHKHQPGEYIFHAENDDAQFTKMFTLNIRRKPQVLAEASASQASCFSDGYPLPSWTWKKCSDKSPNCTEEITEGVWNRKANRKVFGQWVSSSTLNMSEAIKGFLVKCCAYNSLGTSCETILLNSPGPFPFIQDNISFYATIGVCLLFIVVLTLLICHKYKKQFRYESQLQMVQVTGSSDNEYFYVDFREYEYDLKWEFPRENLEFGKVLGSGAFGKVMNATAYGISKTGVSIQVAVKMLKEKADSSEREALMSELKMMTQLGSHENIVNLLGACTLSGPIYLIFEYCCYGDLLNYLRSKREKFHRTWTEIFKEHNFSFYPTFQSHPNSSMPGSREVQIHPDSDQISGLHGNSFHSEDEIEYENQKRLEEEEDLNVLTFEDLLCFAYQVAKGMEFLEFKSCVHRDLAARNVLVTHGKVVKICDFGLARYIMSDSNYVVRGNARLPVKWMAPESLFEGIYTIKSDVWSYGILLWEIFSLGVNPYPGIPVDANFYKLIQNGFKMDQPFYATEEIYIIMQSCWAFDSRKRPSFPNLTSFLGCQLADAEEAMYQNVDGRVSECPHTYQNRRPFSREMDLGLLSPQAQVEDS
Procedure, shortened: as §1

MEK5 = biological target: T5, MEK5 (Homo sapiens, UniProt Q13163); details: 10 μM compound
T5 construct: purchased KinomeScan, a division of Ambit Biosciences
T5 sequence (Q13163 1-448): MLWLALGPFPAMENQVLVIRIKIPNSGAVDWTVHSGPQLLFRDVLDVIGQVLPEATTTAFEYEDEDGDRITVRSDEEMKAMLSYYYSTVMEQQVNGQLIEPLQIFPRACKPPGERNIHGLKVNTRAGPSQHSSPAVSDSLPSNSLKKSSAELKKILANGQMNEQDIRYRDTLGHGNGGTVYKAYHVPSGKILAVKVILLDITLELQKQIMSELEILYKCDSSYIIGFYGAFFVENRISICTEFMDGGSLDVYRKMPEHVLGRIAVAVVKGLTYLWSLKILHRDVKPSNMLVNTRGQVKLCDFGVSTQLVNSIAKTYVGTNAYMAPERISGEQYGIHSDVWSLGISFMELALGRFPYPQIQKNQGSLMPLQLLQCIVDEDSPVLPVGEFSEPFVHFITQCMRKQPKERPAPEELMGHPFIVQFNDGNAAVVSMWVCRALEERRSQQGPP
Procedure, shortened: as §1

PIK3CG = biological target: T6, PIK3CG (Homo sapiens, UniProt P48736); details: 10 μM compound
T6 construct: purchased KinomeScan, a division of Ambit Biosciences
T6 sequence (P48736 whole entry): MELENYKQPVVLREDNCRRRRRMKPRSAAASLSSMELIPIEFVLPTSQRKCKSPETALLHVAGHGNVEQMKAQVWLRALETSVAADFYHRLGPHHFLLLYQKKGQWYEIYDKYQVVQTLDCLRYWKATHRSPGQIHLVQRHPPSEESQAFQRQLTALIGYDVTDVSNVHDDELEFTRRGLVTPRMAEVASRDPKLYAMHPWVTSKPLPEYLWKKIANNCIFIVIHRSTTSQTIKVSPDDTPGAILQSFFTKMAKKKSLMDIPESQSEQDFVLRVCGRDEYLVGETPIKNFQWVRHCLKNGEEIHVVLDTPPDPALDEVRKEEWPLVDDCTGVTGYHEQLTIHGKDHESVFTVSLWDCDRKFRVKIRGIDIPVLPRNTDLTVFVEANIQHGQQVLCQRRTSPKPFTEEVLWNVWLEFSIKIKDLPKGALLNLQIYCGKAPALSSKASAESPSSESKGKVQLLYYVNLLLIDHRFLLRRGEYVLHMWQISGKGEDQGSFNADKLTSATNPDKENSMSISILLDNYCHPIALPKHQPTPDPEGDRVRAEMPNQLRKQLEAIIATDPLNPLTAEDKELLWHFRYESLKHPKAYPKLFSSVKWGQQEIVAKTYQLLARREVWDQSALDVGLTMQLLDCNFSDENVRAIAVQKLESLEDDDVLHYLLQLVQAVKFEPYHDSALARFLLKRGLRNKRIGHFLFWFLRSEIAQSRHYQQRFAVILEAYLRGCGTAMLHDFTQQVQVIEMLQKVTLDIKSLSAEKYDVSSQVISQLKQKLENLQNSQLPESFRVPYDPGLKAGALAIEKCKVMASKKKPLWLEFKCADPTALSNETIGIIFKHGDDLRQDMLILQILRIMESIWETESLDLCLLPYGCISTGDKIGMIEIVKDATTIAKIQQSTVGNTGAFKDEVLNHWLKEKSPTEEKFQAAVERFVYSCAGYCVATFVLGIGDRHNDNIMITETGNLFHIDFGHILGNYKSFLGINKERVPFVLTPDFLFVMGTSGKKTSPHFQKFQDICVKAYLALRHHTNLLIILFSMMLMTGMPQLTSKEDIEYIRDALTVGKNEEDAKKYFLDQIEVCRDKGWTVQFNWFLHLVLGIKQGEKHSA
Procedure, shortened: as §1

PIP5K2C = biological target: T7, PIP5K2C (Homo sapiens, UniProt Q8TBX8); details: 10 μM compound
T7 construct: purchased KinomeScan, a division of Ambit Biosciences
T7 sequence (Q8TBX8 1-421): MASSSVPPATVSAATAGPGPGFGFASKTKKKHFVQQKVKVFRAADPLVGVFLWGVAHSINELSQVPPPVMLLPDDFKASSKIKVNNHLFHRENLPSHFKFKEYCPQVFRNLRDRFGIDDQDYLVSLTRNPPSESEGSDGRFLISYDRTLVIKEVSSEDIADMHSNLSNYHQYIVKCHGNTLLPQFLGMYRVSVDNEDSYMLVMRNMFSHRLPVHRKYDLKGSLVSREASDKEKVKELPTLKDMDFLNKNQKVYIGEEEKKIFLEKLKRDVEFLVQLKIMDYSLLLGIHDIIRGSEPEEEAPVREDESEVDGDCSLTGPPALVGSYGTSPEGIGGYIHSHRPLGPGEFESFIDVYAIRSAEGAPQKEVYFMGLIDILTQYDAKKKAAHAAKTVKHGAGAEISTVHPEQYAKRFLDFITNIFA
Procedure, shortened: as §1

T1 sequence (Q9BWU1 whole entry): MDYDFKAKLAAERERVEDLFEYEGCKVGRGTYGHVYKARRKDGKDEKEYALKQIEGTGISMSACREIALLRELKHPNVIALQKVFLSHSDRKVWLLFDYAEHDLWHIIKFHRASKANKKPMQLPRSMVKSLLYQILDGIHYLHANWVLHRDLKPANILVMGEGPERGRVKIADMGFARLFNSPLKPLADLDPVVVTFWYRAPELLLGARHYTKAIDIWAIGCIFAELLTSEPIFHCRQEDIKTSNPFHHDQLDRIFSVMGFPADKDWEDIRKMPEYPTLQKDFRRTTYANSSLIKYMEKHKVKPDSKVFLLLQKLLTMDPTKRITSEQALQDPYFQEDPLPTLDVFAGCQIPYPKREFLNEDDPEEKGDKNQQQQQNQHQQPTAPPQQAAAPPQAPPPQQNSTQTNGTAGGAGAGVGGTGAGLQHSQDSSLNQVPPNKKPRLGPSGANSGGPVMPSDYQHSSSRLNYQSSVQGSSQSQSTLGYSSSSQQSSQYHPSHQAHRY

Compound | POC ligand binding, CDK19 (CDK19) [POC] | POC ligand binding, CSNK1G2 (CSNK1G2) [POC] | POC ligand binding, EGFR (G719C) (EGFR (G719C)) [POC] | POC ligand binding, FLT3 (D835Y) (FLT3 (D835Y)) [POC] | POC ligand binding, MEK5 (MEK5) [POC] | POC ligand binding, PIK3CG (PIK3CG) [POC] | POC ligand binding, PIP5K2C (PIP5K2C) [POC] | POC ligand binding, CDK19 (CDK19; 10 µM) [POC] | pKd (CDK19) | POC ligand binding, CSNK1G2 (CSNK1G2; 10 µM) [POC] | POC ligand binding, EGFR (G719C) (EGFR (G719C); 10 µM) [POC] | POC ligand binding, FLT3 (D835Y) (FLT3 (D835Y); 10 µM) [POC] | POC ligand binding, MEK5 (MEK5; 10 µM) [POC] | POC ligand binding, PIP5K2C (PIP5K2C; 10 µM) [POC] | inhibition of CDK19 (CDK19) [%]
COc1ccc2ncnc(NCCc3ccccc3)c2c1 [compound 44] | 9.2 | 80 | 0.85 | 55 | 59 | 88 | 59 |  |  |  |  |  |  |  | 
N#Cc1ccc2ncnc(NCc3ccc4ccccc4c3)c2c1 [compound 14] |  |  |  |  |  | 35 |  | 0.1 | 5.96 | 43 | 92 | 32 | 13 | 16 | 
CC(C)CNc1ncnc2ccc(C(F)(F)F)cc12 [compound 45] | 21 | 53 | 59 | 4.7 | 46 | 82 | 60 |  |  |  |  |  |  |  | 
N#Cc1ccc2ncnc(NCc3ccc4ccccc4c3)c2c1 [compound 43] |  |  |  |  |  | 35 |  | 0.25 | 6.72 | 53 | 53 | 76 | 41 | 4 | 
N#Cc1ccc2ncnc(NCCc3ccccc3)c2c1 [compound 1] | 0.05 | 16 | 13 | 19 | 18 | 8 | 1.2 |  | 6.51 |  |  |  |  |  | > 99
CCCNc1ncnc2ccc(N3CCOCC3)cc12 [compound 46] | 100 | 55 | 61 | 19 | 17 | 94 | 61 |  |  |  |  |  |  |  | 
N#Cc1ccc2ncnc(NCCc3ccc4ccccc4c3)c2c1 [compound 26] | 5.6 | 57 | 68 | 55 | 61 | 58 | 39 |  | 6.80 |  |  |  |  |  | 94.6
N#Cc1ccc2ncnc(NCc3ccc(Cl)cc3)c2c1 [compound 20] | 0 | 62 | 34 | 69 | 62 | 40 | 2.4 |  | 7.00 |  |  |  |  |  | 

From patent US8598344B2, “CDKI pathway inhibitors and uses thereof” (Senex Biotechnology, priority 2009, dated 2013)
